Laboratory results published in patent US20040092528A1, “Agent for modulating excitatory synaptic transmission comprising a compound having alpha7 nicotinic acetylcholine receptor activation property” (priority 2000, published 2004).
Read-outs that look alike come from different tables or passages of the source.

How the values were obtained:
[1] = target: α7 nicotinic ACh receptor (Rattus norvegicus, UniProt Q05941); test: Effect of FK960 on EPSP amplitude in the presence of α7 nicotinic ACh receptor antagonists; format: cell-based
CA1 neurones [2] = test: Excitatory post-synaptic current (EPSC) in CA1 neurones voltage clamped at −70 mV; format: cell-based, rat
guinea-pig hippocampus = details: cited from earlier work
rats = rats in vivo; cited from earlier work
[3] = system: CA1 neurones in rat hippocampal slices; test: EPSP recording (amplitude, slope, quantal content) in CA1 neurones in rat hippocampal slices; format: cell-based; details: for increase in EPSP slope: dose-response series
CA1 neurones [4] = test: GABAergic inhibitory post-synaptic current (IPSC) in voltage clamped CA1 neurones; format: cell-based, rat
cholinergic receptors = test: Displacement of radiolabelled ligands with high affinity to cholinergic receptors; format: binding; details: a number of assays
CA1 neurones [5] = test: Membrane potential and input resistance of CA1 neurones; format: cell-based, rat; details: FK960 94 nM and 100 nM, n=11, average exposure 30 mins
rat hippocampus = details: cited from earlier work
[6] = one CA1 neurone (FIG. 1), 100 nM FK960

Sequence of α7 nicotinic ACh receptor (Q05941 23-502): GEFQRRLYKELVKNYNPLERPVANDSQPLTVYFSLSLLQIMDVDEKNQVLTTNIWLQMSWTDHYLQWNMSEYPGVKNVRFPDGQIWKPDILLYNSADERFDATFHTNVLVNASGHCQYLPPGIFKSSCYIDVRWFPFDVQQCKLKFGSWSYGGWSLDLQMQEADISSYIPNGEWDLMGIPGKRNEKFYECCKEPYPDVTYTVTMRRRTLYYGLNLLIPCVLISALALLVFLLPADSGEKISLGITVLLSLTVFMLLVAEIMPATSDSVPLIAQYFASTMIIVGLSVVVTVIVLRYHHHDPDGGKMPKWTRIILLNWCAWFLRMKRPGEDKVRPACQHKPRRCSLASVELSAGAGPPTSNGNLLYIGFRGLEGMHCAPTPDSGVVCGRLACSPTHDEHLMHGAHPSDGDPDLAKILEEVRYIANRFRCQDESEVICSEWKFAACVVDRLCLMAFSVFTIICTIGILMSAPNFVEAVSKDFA

## α-bungarotoxin [reference compound]
[1]
  effect of antagonist on the action of FK960 on the EPSP: attenuated
  mean EPSP amplitude: 1.6 mV

## O=C(c1ccc2nccnc2c1)N1CCCCC1 [FR212436, 1-(quinoxalin-6-ylcarbonyl)piperidine]
CA1 neurones [2]; 200 μM FR212436 for 20 min, n=3, 15.0 ms before
  EPSC decay time constant τEPSC: 22.4 ms
CA1 neurones [2]; 200 μM FR212436 for 20 min, n=3, 84 pA before
  EPSC amplitude: 181.3 pA
CA1 neurones [2]; 2 mM FR212436 for 5-10 min, n=3, 21.5 ms before
  EPSC decay time constant τEPSC: 46.7 ms
CA1 neurones [2]; 2 mM FR212436 for 5-10 min, n=3, 73.7 pA before
  EPSC amplitude: 239.7 pA
CA1 neurones [2]; one neurone (FIG. 5A), FR212436 200 μM, 42 pA before
  EPSC amplitude: 95 pA
CA1 neurones [2]; one neurone (FIG. 5B), FR212436 2 mM, 87 pA before
  EPSC amplitude: 247 pA

## CC(=O)N1CCN(NC(=O)c2ccc(F)cc2)CC1 [FK960, N-(4-acetyl-1-piperazinyl)-p-fluorobenzamide monohydrate]
[1]
  increase in mean EPSP amplitude: 11%
  mean EPSP amplitude: 2.0 mV
[1]; 21 minutes exposure to 100 nM FK960 in 100 nM MLA, 5 CA1 neurones, unchanged
  mean EPSP amplitude: 2.6 mV
[1]; FK960 in 10 nM MLA, 21 minutes, n=3, from 3.1 mV
  rise in EPSP amplitude: 10%
guinea-pig hippocampus; guinea pig hippocampus, 100 nM FK960
  effect on magnitude of long-term potentiation: significantly increased the magnitude of long-term potentiation
guinea-pig hippocampus; guinea-pig hippocampus in vitro
  effect on magnitude of long-term potentiation: increase the magnitude of long-term potentiation
rats
  effect on scopolamine-induced cognitive deficits: reverse scopolamine-induced cognitive deficits
[3]; 0, 50, 100, 200 nM FK960, EPSP slope
  dose-response relationship (shape): bell-shaped
[3]; 100 nM FK960, 21 min, n=9 neurones
  increase in mean EPSP amplitude: 65%
[3]; 100 nM FK960, 21 min, n=9 neurones, 2.3 mV before
  mean EPSP amplitude: 3.8 mV
[3]; 100 nM FK960, 21 minutes, pooled neurones
  mean increase in 1/CV^2 (quantal content): 53%
[3]; 100 nM FK960, 21 minutes, 6.4 before
  1/CV^2 (quantal content), mean: 9.8
[3]; 100 nM FK960, after 21 mins, n=9
  increase in mean EPSP slope: 51%
[3]; 100 nM FK960, after 21 mins, n=9, 357.8 mV/s before
  mean EPSP slope: 540.5 mV/s
[3]; 4 neurones, 20-30 min after exposure to 100 nM FK960, 0.65 before
  frequency of spontaneous EPSPs: 0.54 spontaneous EPSP/sec
[3]; after 21 minutes exposure to 100 nM FK960, 7 neurones, 0.39 mV before
  mean quantum size: 0.42 mV
[3]; after 27 mins in FK960, n=7
  increase in EPSP amplitude: 64%
[3]; after 27 mins in FK960, n=7, 2.2 mV before
  EPSP amplitude: 3.6 mV
[3]; 50 nM FK960
  increase in EPSP slope: smaller and not significant
[3]; 100 nM FK960, n=5, after 21 mins, control aCSF 11%
  increase in EPSP slope: 55%
[3]; 200 nM FK960
  increase in EPSP slope: smaller and not significant
[3]; [6]
  increase in mean EPSP amplitude: 123%
  rise in quantal content: 109%
[3]; one CA1 neurone (FIG. 1), 100 nM FK960, n=287 EPSPs, 2.6 mV in control aCSF
  mean EPSP amplitude: 5.8 mV
[3]; one CA1 neurone (FIG. 1), 21 min 40 sec after 100 nM FK960
  increase in slope of the rising phase of the averaged EPSP: 127%
[3]; one CA1 neurone (FIG. 1), 21 min 40 sec after 100 nM FK960, 326.7 mV/s before
  slope of the rising phase of the averaged EPSP: 742.8 mV/s
[3]; one CA1 neurone (FIG. 1), after 20 mins in 100 nM FK960, 6.4 before
  quantal content (1/CV^2): 13.4
[3]; one CA1 neurone (FIG. 1), after 21 min in 100 nM FK960, 2.6 mV (n=50) before
  mean EPSP amplitude: 5.5 mV
CA1 neurones [4]; 100 nM FK960
  effect on the IPSC: no significant effect
CA1 neurones [4]; 3 experiments, FK960, 48 pA in control aCSF
  Mean IPSC amplitude: 46 pA
CA1 neurones [4]; one CA1 neurone (FIG. 4), 21 minutes in FK960, 39 pA in control aCSF
  IPSC peak amplitude: 38 pA
CA1 neurones [2]; 4 experiments, 20-22 mins exposure to 100 nM FK960, 22.2 ms before
  EPSC decay time constant τEPSC: 28.4 ms
CA1 neurones [2]; 4 experiments, 20-22 mins exposure to 100 nM FK960, 98.3 pA before
  EPSC amplitude: 158.3 pA
CA1 neurones [2]; one neurone (FIG. 5C), FK960, 103 pA before
  EPSC amplitude: 175 pA
Cholinergic receptors
  displacement of radiolabelled ligands with high affinity to cholinergic receptors: failed to displace
CA1 neurones [5]; 175.3 MΩ in control aCSF
  input resistance: 164.2 MΩ
CA1 neurones [5]; −60.3 mV in control aCSF
  resting membrane potential: −59.4 mV
Rat hippocampus
  effect on amplitude of the un-potentiated population spike: increases the amplitude of the un-potentiated population spike
